Assay results from the supplement of paper PMC10307832.

Compound: C1=CC2=NC=CN=C2C=C1/C=C/3\C(=O)NC(=O)S3 + Cc1cc(Nc2cc(N3CCN(C)CC3)nc(Sc3ccc(NC(=O)C4CC4)cc3)n2)n[nH]1 [Tozasertib] (partner 0.1 µM)
Assay: relative viability (nuclei count vs DMSO), 5 days (fraction); higher = more cells survive
Details: first compound 0.02 µM
How it was run: (§1)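 Lung cancer cell lines, seeded in 1536-well plates, were treated the following day by pin tool with a single drug or with five library-drug doses (not always all listed) in √10 steps on top of a fixed anchor-drug dose. Cells were fixed and nuclei stained in one step after 5 days, and nuclei were counted. Relative viability is the nuclei count for treated wells divided by that for vehicle wells, reported as medians of duplicate plates.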

Cell Line | relative viability
HOP-62 | 0.352
LU99A | 0.264
BEN | 0.525
HARA | 0.0982
HCC-78 | 0.384
NCI-H322M | 0.523
LCLC-97TM1 | 0.201
A-427 | 0.209
NCI-H441 | 0.661
NCI-H1734 | 0.256
NCI-H460 | 0.411
NCI-H2347 | 0.553
NCI-H1395 | 0.725
201T | 0.8
NCI-H1915 | 0.452
HCC-827 | 0.403

Cell Line | relative viability
LXF-289 | 0.186
NCI-H23 | 0.337
NCI-H647 | 0.398
CAL-12T | 0.289
NCI-H1651 | 0.827
EPLC-272H | 0.263
NCI-H1355 | 0.515
NCI-H3122 | 0.401
NCI-H1437 | 0.404
NCI-H1755 | 0.585
HCC-15 | 0.374
NCI-H1793 | 0.392
PC-14 | 0.579
EKVX | 0.423
LC-2-ad | 0.444

Same assay, conditions: first compound 0.06325 µM

Cell Line | relative viability
NCI-H2405 | 0.768
HOP-62 | 0.354
LU99A | 0.284
BEN | 0.446
HARA | 0.133
HCC-78 | 0.339
NCI-H322M | 0.466
LCLC-97TM1 | 0.224
A-427 | 0.241
NCI-H441 | 0.828
NCI-H1734 | 0.262
NCI-H460 | 0.262
NCI-H2347 | 0.554
NCI-H1395 | 0.794
201T | 0.922
NCI-H1915 | 0.48

Cell Line | relative viability
HCC-827 | 0.446
LXF-289 | 0.147
NCI-H23 | 0.314
NCI-H647 | 0.258
CAL-12T | 0.383
NCI-H1651 | 0.62
EPLC-272H | 0.253
NCI-H1355 | 0.427
NCI-H3122 | 0.418
NCI-H1437 | 0.388
NCI-H1755 | 0.562
HCC-15 | 0.333
NCI-H1793 | 0.273
PC-14 | 0.754
EKVX | 0.321
LC-2-ad | 0.353

Same assay, conditions: first compound 0.2 µM

Cell Line | relative viability
NCI-H2405 | 0.73
HOP-62 | 0.34
LU99A | 0.238
BEN | 0.551
HARA | 0.128
HCC-78 | 0.408
NCI-H322M | 0.482
LCLC-97TM1 | 0.194
A-427 | 0.198
NCI-H441 | 0.743
NCI-H1734 | 0.317
NCI-H460 | 0.441
NCI-H2347 | 0.546
NCI-H1395 | 0.777
201T | 0.917
NCI-H1915 | 0.41

Cell Line | relative viability
HCC-827 | 0.417
LXF-289 | 0.185
NCI-H23 | 0.363
NCI-H647 | 0.423
CAL-12T | 0.346
NCI-H1651 | 0.664
EPLC-272H | 0.254
NCI-H1355 | 0.556
NCI-H3122 | 0.331
NCI-H1437 | 0.388
NCI-H1755 | 0.66
HCC-15 | 0.303
NCI-H1793 | 0.38
PC-14 | 0.571
EKVX | 0.38
LC-2-ad | 0.46

Same assay, conditions: first compound 0.6325 µM

Cell Line | relative viability
NCI-H2405 | 0.727
HOP-62 | 0.328
LU99A | 0.308
BEN | 0.517
HARA | 0.104
HCC-78 | 0.394
NCI-H322M | 0.461
LCLC-97TM1 | 0.211
A-427 | 0.198
NCI-H441 | 0.62
NCI-H1734 | 0.248
NCI-H460 | 0.392
NCI-H2347 | 0.633
NCI-H1395 | 0.729
201T | 0.873
NCI-H1915 | 0.418

Cell Line | relative viability
HCC-827 | 0.38
LXF-289 | 0.185
NCI-H23 | 0.401
NCI-H647 | 0.268
CAL-12T | 0.313
NCI-H1651 | 0.608
EPLC-272H | 0.259
NCI-H1355 | 0.568
NCI-H3122 | 0.38
NCI-H1437 | 0.418
NCI-H1755 | 0.51
HCC-15 | 0.393
NCI-H1793 | 0.324
PC-14 | 0.546
EKVX | 0.449
LC-2-ad | 0.406

Same assay, conditions: first compound 2 µM

Cell Line | relative viability
NCI-H2405 | 0.637
HOP-62 | 0.363
LU99A | 0.251
BEN | 0.683
HARA | 0.11
HCC-78 | 0.354
NCI-H322M | 0.425
LCLC-97TM1 | 0.145
A-427 | 0.228
NCI-H441 | 0.366
NCI-H1734 | 0.278
NCI-H460 | 0.395
NCI-H2347 | 0.601
NCI-H1395 | 0.809
201T | 0.854
NCI-H1915 | 0.428

Cell Line | relative viability
HCC-827 | 0.472
LXF-289 | 0.168
NCI-H23 | 0.329
NCI-H647 | 0.357
CAL-12T | 0.331
NCI-H1651 | 0.61
EPLC-272H | 0.175
NCI-H1355 | 0.468
NCI-H3122 | 0.4
NCI-H1437 | 0.323
NCI-H1755 | 0.49
HCC-15 | 0.49
NCI-H1793 | 0.281
PC-14 | 0.572
EKVX | 0.352
LC-2-ad | 0.449

Compound: C1=CC2=NC=CN=C2C=C1/C=C/3\C(=O)NC(=O)S3 + COc1cc2c(Oc3ccc(NC(=O)C4(C(=O)Nc5ccc(F)cc5)CC4)cc3F)ccnc2cc1OCCCN1CCOCC1 [Foretinib] (partner 0.25 µM)
Assay: as above
Details: first compound 0.02 µM
How it was run: as §1

Cell Line | relative viability
NCI-H2405 | 1.06
HOP-62 | 1.06
LU99A | 0.727
BEN | 0.787
HARA | 0.857
HCC-78 | 0.54
NCI-H322M | 0.969
LCLC-97TM1 | 0.919
A-427 | 1.08
NCI-H441 | 0.925
NCI-H1734 | 0.891
NCI-H460 | 0.936
NCI-H2347 | 0.843
NCI-H1395 | 1.04
201T | 0.866
NCI-H1915 | 1.11

Cell Line | relative viability
HCC-827 | 1.09
LXF-289 | 0.925
NCI-H23 | 1.12
NCI-H647 | 1.1
CAL-12T | 1.07
NCI-H1651 | 0.774
EPLC-272H | 0.846
NCI-H1355 | 0.816
NCI-H3122 | 0.963
NCI-H1437 | 1.19
NCI-H1755 | 0.807
HCC-15 | 0.981
NCI-H1793 | 0.633
PC-14 | 0.934
EKVX | 0.753
LC-2-ad | 0.889

Same assay, conditions: first compound 0.06325 µM

Cell Line | relative viability
NCI-H2405 | 1.12
HOP-62 | 1.22
LU99A | 0.743
BEN | 0.869
HARA | 0.83
HCC-78 | 0.469
NCI-H322M | 0.918
LCLC-97TM1 | 0.908
A-427 | 1.11
NCI-H441 | 1.09
NCI-H1734 | 0.674
NCI-H460 | 0.833
NCI-H2347 | 0.77
NCI-H1395 | 1.03
201T | 0.977
NCI-H1915 | 1.12

Cell Line | relative viability
HCC-827 | 1.05
LXF-289 | 0.92
NCI-H23 | 0.976
NCI-H647 | 1.39
CAL-12T | 1.05
NCI-H1651 | 0.734
EPLC-272H | 0.693
NCI-H1355 | 0.976
NCI-H3122 | 0.985
NCI-H1437 | 1.24
NCI-H1755 | 0.942
HCC-15 | 1.02
NCI-H1793 | 0.601
PC-14 | 1.07
EKVX | 0.602
LC-2-ad | 0.951

Same assay, conditions: first compound 0.2 µM

Cell Line | relative viability
NCI-H2405 | 1.13
HOP-62 | 1.11
LU99A | 0.792
BEN | 0.693
HARA | 0.888
HCC-78 | 0.538
NCI-H322M | 0.932
LCLC-97TM1 | 0.908
A-427 | 1.13
NCI-H441 | 1.06
NCI-H1734 | 0.808
NCI-H460 | 1.03
NCI-H2347 | 0.948
NCI-H1395 | 1
201T | 1.12
NCI-H1915 | 1.15

Cell Line | relative viability
HCC-827 | 1.02
LXF-289 | 0.953
NCI-H23 | 1.02
NCI-H647 | 1.17
CAL-12T | 1.09
NCI-H1651 | 0.911
EPLC-272H | 0.696
NCI-H1355 | 1.02
NCI-H3122 | 0.917
NCI-H1437 | 1.16
NCI-H1755 | 0.923
HCC-15 | 1.01
NCI-H1793 | 0.721
PC-14 | 0.961
EKVX | 0.773
LC-2-ad | 0.995

Same assay, conditions: first compound 0.6325 µM

Cell Line | relative viability
NCI-H2405 | 1.03
HOP-62 | 1.01
LU99A | 0.822
BEN | 0.666
HARA | 0.841
HCC-78 | 0.534
NCI-H322M | 0.906
LCLC-97TM1 | 0.996
A-427 | 1.01
NCI-H441 | 0.925
NCI-H1734 | 0.844
NCI-H460 | 0.953
NCI-H2347 | 0.86
NCI-H1395 | 0.871
201T | 1.06
NCI-H1915 | 1.09

Cell Line | relative viability
HCC-827 | 0.95
LXF-289 | 0.982
NCI-H23 | 0.902
NCI-H647 | 1.11
CAL-12T | 1.01
NCI-H1651 | 0.796
EPLC-272H | 0.664
NCI-H1355 | 0.936
NCI-H3122 | 0.867
NCI-H1437 | 1.25
NCI-H1755 | 0.897
HCC-15 | 1.03
NCI-H1793 | 0.634
PC-14 | 1.01
EKVX | 0.541
LC-2-ad | 0.917

Same assay, conditions: first compound 2 µM

Cell Line | relative viability
NCI-H2405 | 0.838
HOP-62 | 1.07
LU99A | 0.614
BEN | 0.473
HARA | 1.02
HCC-78 | 0.4
NCI-H322M | 0.669
LCLC-97TM1 | 0.688
A-427 | 1.06
NCI-H441 | 0.668
NCI-H1734 | 0.681
NCI-H460 | 1
NCI-H2347 | 0.634
NCI-H1395 | 1.03
201T | 0.758
NCI-H1915 | 1.04

Cell Line | relative viability
HCC-827 | 1.04
LXF-289 | 0.908
NCI-H23 | 0.856
NCI-H647 | 1.21
CAL-12T | 1.15
NCI-H1651 | 0.75
EPLC-272H | 0.611
NCI-H1355 | 0.929
NCI-H3122 | 0.96
NCI-H1437 | 1.15
NCI-H1755 | 0.864
HCC-15 | 0.928
NCI-H1793 | 0.642
PC-14 | 0.893
EKVX | 0.746
LC-2-ad | 0.699
